Consider 9 compounds from ChEMBL document CHEMBL1156866 (J Med Chem, 2010).

Experiment [1] addresses T1, Proton-coupled folate transporter (Homo sapiens, UniProt Q96NT5).
T1 sequence (Q96NT5 whole entry): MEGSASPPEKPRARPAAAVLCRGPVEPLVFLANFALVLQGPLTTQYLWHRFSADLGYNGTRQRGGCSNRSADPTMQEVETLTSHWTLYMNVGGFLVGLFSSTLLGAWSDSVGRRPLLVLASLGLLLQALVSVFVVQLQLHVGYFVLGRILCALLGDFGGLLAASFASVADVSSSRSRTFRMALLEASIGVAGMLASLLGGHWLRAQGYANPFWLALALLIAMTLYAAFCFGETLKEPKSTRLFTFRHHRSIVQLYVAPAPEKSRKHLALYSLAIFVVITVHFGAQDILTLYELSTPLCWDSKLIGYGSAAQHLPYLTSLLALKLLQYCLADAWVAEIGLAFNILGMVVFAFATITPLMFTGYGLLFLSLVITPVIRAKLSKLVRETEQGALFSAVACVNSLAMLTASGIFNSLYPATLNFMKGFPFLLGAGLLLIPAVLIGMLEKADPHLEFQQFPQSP
Description: Displacement of [3H]MTX from human PCFT expressed in Chinese hamster R2 cells at pH 6.8 by Dixon plot. The experiment is classed as cell-based. (Displacement assays read how much labelled ligand stays bound in the presence of the test substance.)

Experiment [2] can be described thus: cells. The note with it: Cricetulus griseus, 96 h.
Experiment [3] relates to R2. The experiment can be described thus: cells. The note with it: Homo sapiens, R2, 96 h.
Experiment [4] concerns the target T1, Proton-coupled folate transporter. The experiment can be described thus: Displacement of [3H]MTX from human PCFT expressed in Chinese hamster R2 cells at pH 5.5 by Dixon plot. The experiment is classed as cell-based.
Experiment [5] has as its target Folate receptor alpha (Homo sapiens) (UniProt P15328). The experiment can be described thus: Displacement of [3H]folic acid from human FRalpha expressed in Chinese hamster RT16 cells relative to unlabeled folic acid. The experiment is classed as cell-based.
Experiment [6] can be described thus: cells. As to conditions: Cricetulus griseus, D4, 96 h.
The target of experiment [7] is Folate receptor beta (Homo sapiens) (UniProt P14207). The experiment can be described thus: Displacement of [3H]folic acid from human FRbeta expressed in Chinese hamster D4 cells relative to unlabeled folic acid. The experiment is classed as cell-based.
Experiment [8] addresses T2, Reduced folate transporter (Homo sapiens) (UniProt P41440).
T2 sequence (whole entry): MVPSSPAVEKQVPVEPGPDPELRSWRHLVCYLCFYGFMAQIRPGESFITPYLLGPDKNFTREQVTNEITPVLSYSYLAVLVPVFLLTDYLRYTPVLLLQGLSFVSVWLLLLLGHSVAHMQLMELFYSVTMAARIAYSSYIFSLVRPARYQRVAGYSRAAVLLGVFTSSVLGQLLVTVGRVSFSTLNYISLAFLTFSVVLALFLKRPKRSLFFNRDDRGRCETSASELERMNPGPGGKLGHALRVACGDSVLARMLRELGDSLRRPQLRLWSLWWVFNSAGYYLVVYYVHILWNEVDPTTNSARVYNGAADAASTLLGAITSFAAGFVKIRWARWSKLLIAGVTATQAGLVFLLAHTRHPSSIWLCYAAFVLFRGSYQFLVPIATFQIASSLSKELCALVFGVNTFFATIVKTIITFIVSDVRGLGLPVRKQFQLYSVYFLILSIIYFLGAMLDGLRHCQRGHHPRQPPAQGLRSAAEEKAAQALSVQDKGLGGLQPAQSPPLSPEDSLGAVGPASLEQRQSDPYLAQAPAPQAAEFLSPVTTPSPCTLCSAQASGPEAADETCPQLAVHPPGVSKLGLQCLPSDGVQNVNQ
The experiment can be described thus: Displacement of [3H]MTX from human RFC expressed in Chinese hamster PC43-10 cells at 10 uM. The experiment is classed as cell-based.

The test system of experiment [9] is KB. The experiment can be described thus: Antitumor activity against human KB cells xenografted in folate deficient diet fed ICR SCID mouse assessed as tumor cell kill at 180 mg/kg, iv administered as Q4dx4 schedule starting from 29 days post tumor implantation. The experiment is classed as functional. Background: A xenograft is tissue or cells of one species grown in another, often human tumour cells in immunodeficient mice.

Experiment [10] deals with R2. Description: cells. The note with it: Homo sapiens, R2, 96 h. The source holds these as a separate data set.
Experiment [11] in a line: cells. The note with it: Cricetulus griseus, RT16, 96 h.
The subject of experiment [12] is KB. The experiment can be described thus: cells. As to conditions: Homo sapiens, 96 h.
Experiment [13] can be described thus: cells. The note with it: Cricetulus griseus, PC43-10, 96 h.
The subject of experiment [14] is IGROV-1. The experiment can be described thus: cells. As to conditions: Homo sapiens, IGROV-1, 96 h.
Experiment [15] can be described thus: cells. As to conditions: Cricetulus griseus, RT16, 96 h. This is another data set of the same source.
The test system of experiment [16] is KB. The experiment can be described thus: Antitumor activity against human KB cells xenografted in folate deficient diet fed ICR SCID mouse assessed as tumor cell kill at 180 mg/kg, iv administered as Q4dx4 schedule starting from 4 days post tumor implantation. The experiment is classed as functional.
The subject of experiment [17] is KB. The experiment can be described thus: Antitumor activity against human KB cells xenografted in folate deficient diet fed ICR SCID mouse assessed as tumor cell killing at 112.5 mg/kg, iv administered as Q4dx4 schedule starting from 29 days post tumor implantation. The experiment is classed as functional.
Experiment [18] is described as follows: cells. As to conditions: Cricetulus griseus, D4, 96 h. This is another data set of the same source.
Experiment [19] relates to KB. The experiment can be described thus: cells. The note with it: Homo sapiens, 96 h. This is another data set of the same source.
Experiment [20] relates to IGROV-1. Description: cells. The note with it: Homo sapiens, IGROV-1, 96 h. This is another data set of the same source.

pIC50, pKi: −log10 of the molar value. Activity calls are given as the source filed them. The rule behind the calls is not given here. Some results are limits rather than exact numbers.

Folate receptor alpha (Homo sapiens), sequence (P15328 25-234 limits assumed): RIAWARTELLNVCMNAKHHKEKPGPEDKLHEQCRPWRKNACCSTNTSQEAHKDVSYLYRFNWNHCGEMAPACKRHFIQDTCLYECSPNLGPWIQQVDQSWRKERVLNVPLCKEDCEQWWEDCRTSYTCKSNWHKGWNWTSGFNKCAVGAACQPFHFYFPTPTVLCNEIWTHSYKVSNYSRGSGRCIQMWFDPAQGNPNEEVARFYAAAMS
Folate receptor beta (Homo sapiens), sequence (P14207 17-230 limits assumed): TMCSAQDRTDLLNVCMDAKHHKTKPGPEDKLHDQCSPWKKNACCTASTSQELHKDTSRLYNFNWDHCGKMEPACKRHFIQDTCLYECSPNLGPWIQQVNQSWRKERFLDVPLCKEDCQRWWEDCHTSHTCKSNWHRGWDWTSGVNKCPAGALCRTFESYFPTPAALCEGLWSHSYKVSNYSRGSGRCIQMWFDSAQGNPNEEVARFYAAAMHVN

Broadly, the pKi is −log10 of the Ki, conventionally taken in molar units. Read a high pKi as a small Ki. What is called pIC50 is the IC50 on a negative log10 scale, so that one unit is a factor of ten. A higher pIC50 goes with a low IC50. For the compound `Nc1nc2[nH]c(CCCCCc3ccc(C(=O)N[C@@H](CCC(=O)O)C(=O)O)s3)cc2c(=O)[nH]1`, the values for the pKi in [1] and in experiment [4] were 5.65 and 7.00, respectively. The pIC50 in the experiment “cells [2]” was less than 6.00; in the experiment on R2 [3], 6.99; in the experiment “cells [6]” it was less than 6.00. In addition, the relative binding affinity (RBA) is 0.9 in experiment [5] and 1.1 in experiment [7]. Moreover, the outcome in experiment [8] was inactive.
For `Nc1nc2[nH]c(CCCCc3ccc(C(=O)N[C@@H](CCC(=O)O)C(=O)O)s3)cc2c(=O)[nH]1`, the LCK with KB [9] turned out to be 3.7; in the experiment with KB [16] it was 3.5; with KB [17] it was 3.8. Further, the pIC50 with R2 [10] was less than 6.00; in “cells [11]” it was less than 6.00; in “cells [2]”, less than 6.00; in the experiment on R2 [3], 7.36; in “cells [6]” it was less than 6.00; in the experiment with KB [12] it was less than 6.00. The pIC50 in “cells [13]” was less than 6.00; in the experiment with IGROV-1 [14], less than 6.00; in “cells [15]”, 8.74. Also, the result in [8] was inactive.
`CN(Cc1cnc2nc(N)nc(N)c2n1)c1ccc(C(=O)N[C@@H](CCC(=O)O)C(=O)O)cc1`: the outcome in experiment [5] and in [7] was inactive.
As usually defined, the inhibition is the relative decrease from the control value, in per cent. A higher inhibition goes with a response far below the control. `Cc1nc(=O)c2cc(CN(C)c3ccc(C(=O)N[C@@H](CCC(=O)O)C(=O)O)s3)ccc2[nH]1`: the inhibition in experiment [8] was greater than 50%.
For `Nc1nc(=O)c2c([nH]1)NCC(CNc1ccc(C(=O)N[C@@H](CCC(=O)O)C(=O)O)cc1)N2C=O` (mixture of isomers), the inhibition in experiment [8] is greater than 50%.
For `Nc1nc2c(c(=O)[nH]1)C[C@@H](CCc1ccc(C(=O)N[C@@H](CCC(=O)O)C(=O)O)cc1)CN2`, the result in experiment [5] and in experiment [7] was Active. The compound further registered an inhibition in experiment [8] greater than 50%.
Take `Nc1nc2[nH]cc(CCc3ccc(C(=O)N[C@@H](CCC(=O)O)C(=O)O)cc3)c2c(=O)[nH]1`: the outcome in experiment [7] was inactive. In experiment [8], the inhibition is greater than 50%.
In the case of `Nc1nc2[nH]c(CCCCCCc3ccc(C(=O)N[C@@H](CCC(=O)O)C(=O)O)s3)cc2c(=O)[nH]1`, the negative-log IC50 (pIC50) in “cells [2]”, in “cells [18]” and in “cells [6]” was less than 6.00 in each case. The relative binding affinity (RBA) in experiment [5] was determined as 0.6; in [7] it was 0.4. Also, the result in experiment [8] was inactive.
`Nc1nc(N)c2nc(CNc3ccc(C(=O)N[C@@H](CCCNC(=O)c4ccccc4C(=O)O)C(=O)O)cc3)cnc2n1` [TALOTREXIN]: the pIC50 in the experiment with R2 [10] was less than 6.00; in the experiment “cells [11]” it was 6.06; with KB [19], 8.28; in “cells [2]”, less than 6.00; in the experiment with R2 [3], less than 6.00; with IGROV-1 [20], 8.46. Moreover, the pIC50 in “cells [13]” is 8.89; in the experiment with IGROV-1 [14] it was 8.61; in “cells [15]”, 6.39.
